The source of these data is US8613948B2, “Treatment of faecal incontinence and other conditions with 1R, 2S-methoxamine” (Norgine BV, priority 2001, dated 2013).

Where two headings read alike, the source gives them in different places.

Data set [1] relates to anaesthetised minipigs. Description: Reactivity of the circulatory functions to arterenol or isoproterenol. The data set is classed as in vivo, Göttingen-minipigs. Conditions: any of the gels. Here is the method:
Before the first administration and at further suitable times after the administration, isoproterenol was administered intravenously for control purposes. Arterenol (norephinephrine hydrochloride, also known as L-noradrenaline) was administered for control purposes at the end of the study only after completing the collection of the blood samples for toxicokinetics.

Data set [2] deals with anaesthetised minipigs. Details: species or system Göttingen-minipigs. Conditions: in vivo. On the procedure:
The test substances were administered topically to the anoderm using a volume of 0.5 ml/animal. The interval between each observation period was 20 minutes. The administration was performed employing a 1 ml syringe inserted approximately 1 cm into the anal canal. The test substances were administered slowly while the syringe was rotated. After the preparation and a period of at least 15 minutes for stabilisation of the circulatory functions, the animals were treated with the placebo or the selected dose levels of the test substance by administration to the anoderm.
ECG recordings were made using the standard limb leads I, II and III as well as augmented limb leads aVR, aVL and aVF. A standardisation of 10 mm/1 mV was used and a paper speed of 50 mm/sec. The recordings were carried out using a HELLIGE Marquette mac 5000 12SL. The recordings were examined visually for any arrhythmias and abnormalities of the electrical complexes. In addition, the following parameters were evaluated for limb lead II: Heart rate [beats/min]; P segment, [msec]; P-Q interval, [msec]; QRS complex [msec]; Q-T interval, [msec]. The QTc values [msec] were calculated according to the van de Water-formula: QTc=QT−0.087 (R-R distance−1000)
For each measurement period the heart rate, ECG and the blood pressure in the a. femoralis were measured continuously and recorded immediately before and 5, 10, 15, 20, 40 and 60 minutes after start of administration for periods of approx. 30 sec, and then in intervals of 20 minutes until any effect had subsided.

In data set [3] the test system is pig internal anal sphincter muscle. Description: In vitro contraction of internal anal sphincter muscle strips in superfusion organ bath. The data set is classed as cell-based. Conditions: for EC50: Sus scrofa, pig IAS strips. On the procedure: Tissue was obtained from female Large White pigs from a local abattoir. Pieces of internal anal sphincter muscle were cut and the tissue was transferred immediately to Krebs solution at 4° C. (120 mM NaCl, 5.9 mM KCl, 15.4 mM Na2HCO3, 1.2 mM NaH2PO4, 2.5 mM CaCl2, 1.2 mM MgCl2, 11.5 mM glucose, equilibrated with 97% oxygen and 3% carbon dioxide to maintain the pH at 7.4±0.05). The epithelium of the anal canal was removed along with the submucosa. Strips of the internal anal sphincter (IAS) were cut, each measuring approximately 1×1×7 mm, weighing 2 mg to 8 mg and containing parallel muscle bundles. Fine 5-0 silk ligatures were tied to each end and the strips mounted for isometric tension recording in superfusion organ baths (capacity 0.2 ml)^19 as shown in FIG. 1. The muscle strip 1 is held by a thread 2 to secure it in position within the Perspex jacket 3. The strips were perfused continuously with Krebs solution (37° C.) at a rate of 1 ml/min introduced via an inflow 4 and exiting via an overflow 5. This apparatus allows six strips to be studied simultaneously. The strips were initially loaded with 1 g tension and allowed to equilibrate for at least 90 minutes. Tension was measured by Pioden dynamometer UF1 transducer (Pioden Controls, Canterbury, UK) involving a tension transducer 6 and ring electrodes 7 and 7a, and recorded both on a six channel Tekman 900 pen recorder (Tekman Electronics, Learnington Spa, UK) and using Chart v3.6 and MacLab Data Acquisition System (AD Instruments, Australia).
Phenylephrine (Sigma Chemical Co., Poole, UK), methoxamine racemate and the four methoxamine isomers were dissolved in Krebs solution and tested for their effect on IAS tone. Methoxamine racemate, that is to say, an equimolar mixture of the four isomers, was produced by Prosyth Limited, Acton, Sudbury, Suffolk. The four isomers (called peaks 1 to 4), were separated as described in Example 3. Peak 2 is 1R,2S-methoxamine. The 1R,2S isomer was also synthesised as described in Example 4. It has been confirmed by crystallography that peak 2 is 1R,2S-methoxamine.
IAS strips developed intrinsic tone during the equilibrium period. After equilibration increasing concentrations of each of the test compounds were added for 20 second periods, with intervening washout periods of at least ten minutes, until the tone had returned to baseline.
Results are expressed as mean (standard error of the mean) and the number of surgical specimens from which these strips were derived. A maximum of six strips were used from each pig for each test compound.
Test compound-induced increases in tone were calculated by taking the peak tone after application of the test compound and […]. This figure was then expressed as a percentage of maximal increase in tone seen across the dose range used (10^−2M to 10^−8M). All analysis was performed using Chart v3.6 software.
EC50 values were calculated by plotting concentration-response curves for each muscle strip. The dose causing 50% of maximal contraction was calculated by linear regression. EC50 values for different drugs were compared using a two-tailed t-test, assuming unequal variance and with p<0.05 considered significant.

In general, EC50 refers to the concentration at which the effect is half-maximal. For `COc1ccc(OC)c([C@@H](O)C(C)N)c1` (single isomer, unassigned) [1R,2S-methoxamine], the “expected reactions to arterenol or isoproterenol” value with anaesthetised minipigs [1] is on record as “not influenced”. Further, in the data set on anaesthetised minipigs [2] (Göttingen, minipig, 2 h), the heart rate result is on record as “approx. 100 beats/min” and the “increase in the heart rate” value is 29%. Besides, in the data set with anaesthetised minipigs [2], the “influence on P-segment, P-Q interval, Q-T interval, QTc value and QRS complex” value is reported as “no substance-related influence”; the “prolongation of the QT-interval” value is given as “no evidence was noted for a prolongation of the QT-interval”; the “ventricular premature complexes (visual assessment of ECG)” value is “did not reveal any ventricular premature complexes”. For the same compound, in data set [3] (chemically synthesised 1R,2S isomer, read-out: EC50), the EC50 is 10.5 µM. The concentration for a half-maximal effect (EC50) in data set [3] (Table 1, read-out: EC50 value μM (±SE)) came to 17.6 µM. Also, in data set [3] (dose range 10^−2M to 10^−8M), the “contraction of smooth muscle strips from the IAS” value is “caused dose dependent contraction”. Besides, in data set [3] (in vitro), the “potency at inducing contraction of internal anal sphincter muscle in vitro relative to phenylephrine” value was “at least four times more potent”. Moreover, in data set [3] (racemate = equimolar mixture of all four isomers), the “potency relative to methoxamine racemate” value is on record as “at least four times the potency”.
